Data reported in ChEMBL document CHEMBL1671660, “Efficacy of iclaprim against wild-type and thymidine kinase-deficient methicillin-resistant Staphylococcus aureus isolates in an in vitro fibrin clot model” (Antimicrob Agents Chemother, 2009).
≈ marks a conversion by molar mass, not a printed value. Calls of active or inactive are those of the source. The rule behind the calls is not given here.

Tests used:
Staphylococcus aureus [1] = assay: Bactericidal activity against methicillin-resistant Staphylococcus aureus AW6 at 3.5 ug/ml by time kill analysis in presence of 50% rat serum and 0.2 U/ml thymidine phosphorylase; format: functional, organism-based
Staphylococcus aureus [2] = assay: Antimicrobial activity against thymidine kinase-deficient methicillin-resistant Staphylococcus aureus AH1252 grown on CAMHB media after 24 hrs by broth microdilution method in presence of 50% human serum and 0.2 U/ml thymidine phosphorylase; format: functional; details: AH1252, 24 h
Staphylococcus aureus [3] = assay: Bacteriostatic activity against methicillin-resistant Staphylococcus aureus AW6 infected in in vitro rat fibrin clot model assessed as reduction in bacterial colony at 3.5 ug/ml after 48 hrs; format: functional, organism-based
[4] = Plasma protein binding in human; format: ADME, cell-free; details: read-out: PPB (converted)
Staphylococcus aureus [5] = assay: Bactericidal activity against thymidine kinase-deficient methicillin-resistant Staphylococcus aureus AH1252 infected in in vitro human fibrin clot model assessed as log reduction in bacterial colony at 3.5 ug/ml after 24 hrs; format: functional
Staphylococcus aureus [6] = assay: Antimicrobial activity against thymidine kinase-deficient methicillin-resistant Staphylococcus aureus AH1252 grown on CAMHB media after 24 hrs by broth microdilution method in presence of 50% rat serum; format: functional; details: AH1252, 24 h
Staphylococcus aureus [7] = assay: Antimicrobial activity against methicillin-resistant Staphylococcus aureus AW6 grown on CAMHB media after 24 hrs by broth microdilution method; format: functional; details: AW6, 24 h
Staphylococcus aureus [8] = assay: Antimicrobial activity against methicillin-resistant Staphylococcus aureus AW6 grown on CAMHB media after 24 hrs by broth microdilution method in presence of 50% human serum and 1 ug/ml thymidine; format: functional; details: AW6, 24 h
Staphylococcus aureus [9] = assay: Bactericidal activity against methicillin-resistant Staphylococcus aureus AW6 at 3.5 ug/ml by time kill analysis in presence of 50% human serum and 1 ug/ml thymidine; format: functional, organism-based
Staphylococcus aureus [10] = assay: Antimicrobial activity against thymidine kinase-deficient methicillin-resistant Staphylococcus aureus AH1252 grown on CAMHB media after 24 hrs by broth microdilution method in presence of 50% human serum and 1 ug/ml thymidine; format: functional; details: AH1252, 24 h
Staphylococcus aureus [11] = assay: […] activity against methicillin-resistant Staphylococcus aureus AW6 assessed as loss of bacterial cell viability at 3.5 ug/ml measured within 8 hrs by time kill analysis in presence of 50% human serum; format: functional
Staphylococcus aureus [12] = assay: Antimicrobial activity against thymidine kinase-deficient methicillin-resistant Staphylococcus aureus AH1252 grown on CAMHB media after 24 hrs by broth microdilution method in presence of 0.2 U/ml thymidine phosphorylase; format: functional; details: AH1252, 24 h
Staphylococcus aureus [13] = assay: Bactericidal activity against thymidine kinase-deficient methicillin-resistant Staphylococcus aureus AH1252 assessed as loss of bacterial cell viability at 3.5 ug/ml measured within 8 hrs by time kill analysis in presence of 50% human serum; format: functional
Staphylococcus aureus [14] = assay: Antimicrobial activity against methicillin-resistant Staphylococcus aureus AW6 grown on CAMHB media after 24 hrs by broth microdilution method in presence of 50% human serum and 0.2 U/ml thymidine phosphorylase; format: functional; details: AW6, 24 h
Staphylococcus aureus [15] = assay: Antimicrobial activity against methicillin-resistant Staphylococcus aureus AW6 grown on CAMHB media after 24 hrs by broth microdilution method in presence of 50% human serum; format: functional; details: AW6, 24 h
Staphylococcus aureus [16] = assay: Antimicrobial activity against thymidine kinase-deficient methicillin-resistant Staphylococcus aureus AH1252 grown on CAMHB media after 24 hrs by broth microdilution method in presence of protein depleted human serum; format: functional; details: AH1252, 24 h
Staphylococcus aureus [17] = assay: Bactericidal activity against thymidine kinase-deficient methicillin-resistant Staphylococcus aureus AH1252 infected in in vitro rat fibrin clot model assessed as reduction in bacterial colony at 3.5 ug/ml after 48 hrs; format: functional, organism-based
Staphylococcus aureus [18] = assay: […] activity against methicillin-resistant Staphylococcus aureus AW6 assessed as loss of bacterial cell viability at 3.5 ug/ml by time kill analysis in presence of 50% rat serum; format: functional
Staphylococcus aureus [19] = assay: Antimicrobial activity against thymidine kinase-deficient methicillin-resistant Staphylococcus aureus AH1252 grown on CAMHB media after 24 hrs by broth microdilution method in presence of 50% human serum; format: functional; details: AH1252, 24 h
Staphylococcus aureus [20] = assay: Antimicrobial activity against thymidine kinase-deficient methicillin-resistant Staphylococcus aureus AH1252 grown on CAMHB media after 24 hrs by broth microdilution method in presence of protein depleted rat serum; format: functional; details: AH1252, 24 h
[21] = Protein binding in rat serum; format: ADME, cell-free; details: read-out: PB (converted)
Staphylococcus aureus [22] = assay: Antimicrobial activity against thymidine kinase-deficient methicillin-resistant Staphylococcus aureus AH1252 grown on CAMHB media after 24 hrs by broth microdilution method; format: functional; details: AH1252, 24 h
Staphylococcus aureus [23] = assay: Bactericidal activity against thymidine kinase-deficient methicillin-resistant Staphylococcus aureus AH1252 assessed as loss of bacterial cell viability at 3.5 ug/ml by time kill analysis in presence of 50% rat serum; format: functional, organism-based
Staphylococcus aureus [24] = assay: Antimicrobial activity against thymidine kinase-deficient methicillin-resistant Staphylococcus aureus AH1252 grown on CAMHB media after 24 hrs by broth microdilution method in presence of 50% rat serum and 0.2 U/ml thymidine phosphorylase; format: functional; details: AH1252, 24 h
Staphylococcus aureus [25] = assay: Antimicrobial activity against methicillin-resistant Staphylococcus aureus AW6 grown on CAMHB media after 24 hrs by broth microdilution method in presence of protein depleted human serum; format: functional; details: AW6, 24 h
Staphylococcus aureus [26] = assay: Antimicrobial activity against methicillin-resistant Staphylococcus aureus AW6 grown on CAMHB media after 24 hrs by broth microdilution method in presence of 50% rat serum; format: functional; details: AW6, 24 h
Staphylococcus aureus [27] = assay: Bactericidal activity against methicillin-resistant Staphylococcus aureus AW6 infected in in vitro human fibrin clot model assessed as log reduction in bacterial colony at 3.5 ug/ml after 24 hrs; format: functional
Staphylococcus aureus [28] = assay: Antimicrobial activity against methicillin-resistant Staphylococcus aureus AW6 grown on CAMHB media after 24 hrs by broth microdilution method in presence of 50% rat serum and 0.2 U/ml thymidine phosphorylase; format: functional; details: AW6, 24 h
Staphylococcus aureus [29] = assay: Antimicrobial activity against methicillin-resistant Staphylococcus aureus AW6 grown on CAMHB media after 24 hrs by broth microdilution method in presence of 0.2 U/ml thymidine phosphorylase; format: functional; details: AW6, 24 h
Staphylococcus aureus [30] = assay: Antimicrobial activity against methicillin-resistant Staphylococcus aureus AW6 grown on CAMHB media after 24 hrs by broth microdilution method in presence of protein depleted rat serum; format: functional; details: AW6, 24 h
[31] = Protein binding in human serum; format: ADME, cell-free; details: read-out: PB (converted)
Staphylococcus aureus [32] = assay: Bactericidal activity against methicillin-resistant Staphylococcus aureus AW6 at 3.5 ug/ml by time kill analysis in presence of 50% rat serum and 1 ug/ml thymidine; format: functional, organism-based
Staphylococcus aureus [33] = assay: Bactericidal activity against methicillin-resistant Staphylococcus aureus AW6 at 40 ug/ml by time kill analysis in presence of 50% rat serum; format: functional, organism-based
Staphylococcus aureus [34] = assay: Bactericidal activity against thymidine kinase-deficient methicillin-resistant Staphylococcus aureus AH1252 at 40 ug/ml by time kill analysis in presence of 50% human serum; format: functional, organism-based
Staphylococcus aureus [35] = assay: Bactericidal activity against methicillin-resistant Staphylococcus aureus AW6 infected in in vitro rat fibrin clot model assessed as reduction in bacterial colony at 40 ug/ml after 48 hrs; format: functional, organism-based
Staphylococcus aureus [36] = assay: Bactericidal activity against thymidine kinase-deficient methicillin-resistant Staphylococcus aureus AH1252 infected in in vitro rat fibrin clot model assessed as reduction in bacterial colony at 40 ug/ml after 24 hrs; format: functional, organism-based
Staphylococcus aureus [37] = assay: Bactericidal activity against thymidine kinase-deficient methicillin-resistant Staphylococcus aureus AH1252 infected in in vitro rat fibrin clot model assessed as reduction in bacterial colony at 40 ug/ml after 48 hrs; format: functional, organism-based
Staphylococcus aureus [38] = assay: Bacteriostatic activity against methicillin-resistant Staphylococcus aureus AW6 infected in in vitro human fibrin clot model assessed as reduction in bacterial colony at 40 ug/ml after 24 hrs; format: functional, organism-based
Staphylococcus aureus [39] = assay: Bactericidal activity against methicillin-resistant Staphylococcus aureus AW6 at 40 ug/ml by time kill analysis in presence of 50% human serum; format: functional, organism-based
Staphylococcus aureus [40] = assay: Bactericidal activity against thymidine kinase-deficient methicillin-resistant Staphylococcus aureus AH1252 at 40 ug/ml by time kill analysis in presence of 50% rat serum; format: functional, organism-based

With `COc1cc(Cc2cnc(N)nc2N)c2c(c1OC)OC(C1CC1)C=C2` (stereo not given) [ICLAPRIM] the Activity (Staphylococcus aureus [1]) was “Active”, the MIC (Staphylococcus aureus [2]) was 0.06 µg/mL and the Activity (Staphylococcus aureus [3]) was “Active”. For the same molecule, the fraction unbound [4] was 0.07, the log10CFU/ml (Staphylococcus aureus [5]) was “>=3” and the MIC (Staphylococcus aureus [6]) was 0.03 µg/mL. The MIC (Staphylococcus aureus [7]) was 0.06 µg/mL (≈ 0.169 µM), the MIC (Staphylococcus aureus [8]) was over 2 µg/mL and the Activity (Staphylococcus aureus [9]) was “inactive”. The MIC (Staphylococcus aureus [10]) was 0.03 µg/mL, the log10CFU/ml (Staphylococcus aureus [11]) was “>=3” and the MIC (Staphylococcus aureus [12]) was 0.03 µg/mL. The log10CFU/ml (Staphylococcus aureus [13]) was “>=3”, the MIC (Staphylococcus aureus [14]) was 0.2 µg/mL and the MIC (Staphylococcus aureus [15]) was 0.12 µg/mL. For the same molecule, the MIC (Staphylococcus aureus [16]) was 0.03 µg/mL, the Activity (Staphylococcus aureus [17]) was “Active” and the log10CFU/ml (Staphylococcus aureus [18]) was “>=3”. It also gave an MIC (Staphylococcus aureus [19]) of 0.06 µg/mL, an MIC (Staphylococcus aureus [20]) of 0.06 µg/mL and a fraction unbound [21] of 0.1. The MIC (Staphylococcus aureus [22]) was 0.03 µg/mL (≈ 0.0846 µM), the Activity (Staphylococcus aureus [23]) was “Active” and the MIC (Staphylococcus aureus [24]) was 0.03 µg/mL. The MIC (Staphylococcus aureus [25]) was 0.03 µg/mL, the MIC (Staphylococcus aureus [26]) was over 2 µg/mL and the log10CFU/ml (Staphylococcus aureus [27]) was “>=3”. The MIC (Staphylococcus aureus [28]) was 0.06 µg/mL, the MIC (Staphylococcus aureus [29]) was 0.03 µg/mL and the MIC (Staphylococcus aureus [30]) was over 2 µg/mL. For the same molecule, the fraction unbound [31] was 0.05 and the Activity (Staphylococcus aureus [32]) was “inactive”.
In the case of `CN[C@H](CC(C)C)C(=O)N[C@H]1C(=O)N[C@@H](CC(N)=O)C(=O)N[C@H]2C(=O)N[C@H]3C(=O)N[C@H](C(=O)N[C@H](C(=O)O)c4cc(O)cc(O)c4-c4cc3ccc4O)[C@H](O)c3ccc(c(Cl)c3)Oc3cc2cc(c3O[C@@H]2O[C@H](CO)[C@@H](O)[C@H](O)[C@H]2O[C@H]2C[C@](C)(N)[C@H](O)[C@H](C)O2)Oc2ccc(cc2Cl)[C@H]1O`, the Activity (Staphylococcus aureus [33]) is reported as “Active”, the Activity (Staphylococcus aureus [34]) is reported as “Active” and the Activity (Staphylococcus aureus [35]) is reported as “Active”. The Activity (Staphylococcus aureus [36]) was “Active”, the Activity (Staphylococcus aureus [37]) was “Active” and the Activity (Staphylococcus aureus [38]) was “Active”. For the same molecule, the Activity (Staphylococcus aureus [39]) was “Active” and the Activity (Staphylococcus aureus [40]) was “Active”.
